The record followed here is patent US11911467B2, “Composition comprising PIC for treatment of cancer” (Yisheng Biopharma (Singapore) PTE LTD, priority 2016, dated 2024).

One data set concerns S180 tumor. Also on record: species or system female Balb/c mice. The following applies: mouse, in vivo.
The test system of data set [1] is Ehrlich Ascites Cancer (EAC) tumor. Further details: species or system female Kunming mice. The following applies: mouse, in vivo.
Data set [2] has as its system LL/2 murine Lewis lung tumor.
The subject of the next data set is 4T1 murine breast tumor. Description: 4T1 murine breast tumor model (Example 3). Format: in vivo, female Balb/c mice. As for the experimental part:
1.1 Female Balb/c mice (6 weeks old, body weight 17.2±0.1 g) were obtained from Shanghai SIPPR-BK Laboratory Animal Co. Ltd.
The murine breast cancer cancer cell line 4T1 was obtained from American Type Culture Collection (ATCC), and maintained by HD Biosciences. Cells were maintained in DMEM with 10% fetal bovine serum in a atmosphere of 5% CO2 at 37° C. Passaging ratio was between 1:5 and 1:8, at the frequency of 3 to 4 times per week.
4T1 murine breast tumor model was established in female Balb/c mice by subcutaneous inoculation with 1×10^6 cells per animal. The rate of tumor formation was 100%. Three days post cell inoculation, the cell inoculated mice were randomly sorted into treatment groups by weight. Animals in each group were administered according to Table 2.
There were 4 groups: Vehicle group, Docetaxel group, YS-ON-001 low dose group, and YS-ON-001 high dose group.
2. The Studies were Terminated when the Average Tumor Volume in Vehicle Group Reached 2500 mm^3
3. At the end of study, the tumor mass was removed and photographed. The tumor weight was recorded. The thymus and spleen was removed and weighed. And then, the organ index was calculated.
III. Observational Indices: Same as in Example 2 Section III.
Data were reported as Mean±SEM. Comparison between groups was analysed using ANOVA.

Setting [3] is: Cisplatin 5 mg/kg i.v. QW, total 3 dosing, end of study.
Where [4] appears, read: Docetaxel 10 mg/kg i.v. QW, total 3 dosing, end of study.

Values joined by “and” are separate entries in the source; they are usually repeats but may differ in a detail not shown here. Equal entries are not always repeated.

As for `O=P1(N(CCCl)CCCl)NCCCO1` (centres unmarked) [CTX, Cyclophosphamide], in the data set on S180 tumor, the “Tumor growth (tumor volume) compared with saline control group” value is on record as “significantly inhibited the tumor growth” and the “Tumor weight compared with saline control group” value is “significantly decreased tumor weight”. In data set [1], the “Day on which all mice were dead” value was determined as 30 days; the “Day on which death was first observed” value was 27 days; the “Median duration (to death)” value is 29 days and 34.5 days.
With `N.N.[Cl][Pt][Cl]` [Cisplatin], in the data set on B16F10 metastasis tumor (day 15, Cisplatin 5 mg/kg i.v. Q4D, YS-ON-001 200 μg/0.2 mL/mice/dose i.m./s.c. BID, p<0.01), the “Number of lung metastases compared with vehicle group” value is given as “significantly decreased”. In addition, in the data set with B16F10 metastasis tumor (mouse, in vivo), the “Spleen weight and spleen index compared with vehicle group” value is “not affected”; the “Thymus weight and thymus index compared with vehicle group” value is recorded as “significantly decreased”. Moreover, in data set [2] (setting [3]), the “Relative tumor proliferation rate T/C” value amounted to 53.04% and the “Tumor inhibition rate (tumor weight)” value came out at 29.46%. For the same compound, in data set [2] (mouse, in vivo), the “Spleen index compared to vehicle group” value is listed as “trend of reducing which is not significant”; the “Spleen weight compared to vehicle group” value was “significantly reduced”; the “Thymus weight and thymus index compared to vehicle group” value is listed as “significantly reduced”.
For `CC(=O)O[C@@]12CO[C@@H]1C[C@H](O)[C@@]1(C)C(=O)[C@H](O)C3=C(C)[C@@H](OC(=O)[C@H](O)[C@@H](NC(=O)OC(C)(C)C)c4ccccc4)C[C@@](O)([C@@H](OC(=O)c4ccccc4)[C@H]21)C3(C)C` [Docetaxel], in the data set with 4T1 murine breast tumor (setting [4]), the “Relative tumor proliferation rate T/C” value turned out to be 50.12% and the “Tumor inhibition rate (tumor weight)” value is 35.55%. Also, the “Body weight compared to vehicle group” value in the data set with 4T1 murine breast tumor (Docetaxel 10 mg/kg, Day 8 and Day 13 to end of study, p<0.01) is given as “significantly affected”. For the same compound, the “Body weight change compared to vehicle group” value in the data set on 4T1 murine breast tumor (Docetaxel: Day 4 to end, two YS-ON-001 groups: Day 4 and Day 15 to end) is given as “significantly reduced”. Further, in the data set on 4T1 murine breast tumor (end of study, doses of Table 2), the “Spleen weight compared to vehicle group” value is “significantly reduced”; the “Thymus weight and thymus index compared to vehicle group” value was “significantly reduced”. Moreover, the “Spleen index compared to vehicle group” value in the data set with 4T1 murine breast tumor (end of study, doses of Table 2, YS-ON-001 p<0.01 low dose, p<0.05 high dose) was “significantly reduced”.
